In patent US11505575B2, “Cyclic polypeptides for PCSK9 inhibition” (Merck Sharp & Dohme LLC, priority 2018, dated 2022) one finds IC50 data, which are given here for 15 compounds.

For orientation: IC50 means the midpoint of a concentration-inhibition curve.

*1 amine or outer side, *2 acyl side, *3 side chain or, on linkers, in order; H or OH if unused. Where a SMILES comes first, the peptide text is derived from it. Bridges are numbered along the chain shown (N, C = ends). [ ]: non-standard residue; d: D form. X6 = C[C@@H](O)[C@H](CC(=O)[C@H](Cc1cnc[nH]1)N[*:1])C(=O)[*:2]; 3Aminoazetidine3carboxyl = O=C(C1(N[*:1])CN([*:3])C1)[*:2]; Ala(4-isoquinolinyl) = N[C@@H](Cc1cncc2ccccc12)C(=O)O; Trp(7-aza) = N[C@@H](Cc1c[nH]c2ncccc12)C(=O)O; mXylylene(5-F) = Fc1cc(C[*:1])cc(C[*:2])c1; X2 = O=C(CCSCc1cccc(CSCCN[*:1])c1)[*:2]; 1Nal = N[C@@H](Cc1cccc2ccccc12)C(=O)O; mXylylene = c1cc(C[*:1])cc(C[*:2])c1; aThr = C[C@H](O)[C@H](N)C(=O)O; αMeOrn = C[C@](N)(CCCN)C(=O)O; Chg = N[C@H](C(=O)O)C1CCCCC1; Tle = CC(C)(C)[C@H](N)C(=O)O; αMeK = C[C@](N)(CCCCN)C(=O)O; αMeV = CC(C)[C@](C)(N)C(=O)O; Nva = CCC[C@H](N)C(=O)O; Aib = CC(C)(N)C(=O)O; Mpa = O=C(O)CCS

Assay [1] concerns the target human PCSK9 / human LDLR EGFa domain interaction (Homo sapiens, UniProt Q8NBP7). In words: TR-FRET assay of inhibition of the PCSK9-LDLR protein-protein interaction. As to conditions: 20 nM biotinylated human PCSK9 + 20 nM his-tagged human LDLR EGFa domain, 2 hours room temperature. It is filed as binding. As to the method: A time-resolved fluorescence resonance energy (TR-FRET) assay was used to measure inhibition of the PCSK9-LDLR protein-protein interaction. Briefly, 20 nM avitag-biotinylated human PCSK9 was incubated with 20 nM his-tagged human LDLR EGFa domain in the presence of 5 nM LANCE Ulight Streptavidin (Perkin Elmer) and 5 nM europium-Anti-6×His (Perkin Elmer) for 2 hours covered at room temperature in buffer containing 50 mM HEPES, 150 mM NaCl, 5 mM CaCl2, 0.01% BSA and 0.01% Surfactant P20. Compounds were tested in dose-response and concentrations giving half-maximal inhibition calculated using a 4-parameter fit equation.
(In general: In TR-FRET formats the signal depends on donor and acceptor labels being close together.)

The target of the next assay is T1, PCSK9 (Homo sapiens, UniProt Q8NBP7).
T1 construct: biotin (biotinylated)
T1 sequence (Q8NBP7 153-692): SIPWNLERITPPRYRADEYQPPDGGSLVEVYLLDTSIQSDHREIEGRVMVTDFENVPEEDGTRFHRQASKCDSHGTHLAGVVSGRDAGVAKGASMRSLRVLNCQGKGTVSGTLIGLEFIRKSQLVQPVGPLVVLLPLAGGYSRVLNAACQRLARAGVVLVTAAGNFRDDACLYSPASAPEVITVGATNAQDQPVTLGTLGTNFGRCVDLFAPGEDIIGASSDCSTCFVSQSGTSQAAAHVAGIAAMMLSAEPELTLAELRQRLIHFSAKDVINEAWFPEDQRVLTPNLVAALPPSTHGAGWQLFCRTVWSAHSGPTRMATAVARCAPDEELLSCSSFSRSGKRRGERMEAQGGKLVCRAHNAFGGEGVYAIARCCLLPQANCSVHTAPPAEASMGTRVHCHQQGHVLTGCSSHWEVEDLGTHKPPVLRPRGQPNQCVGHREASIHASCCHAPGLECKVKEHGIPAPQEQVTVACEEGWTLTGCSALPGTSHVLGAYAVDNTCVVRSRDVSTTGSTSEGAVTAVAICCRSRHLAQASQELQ
The experiment in a line: PCSK9 Alexa FRET Standard assay (displacement of AlexaFluor647-tagged cyclic peptide Reagent A). Conditions: 0.5 nM PCSK9, 20 nM AF cyclic peptide Reagent A. It is filed as binding. As to the method: A solution containing 1 nM biotinylated PCSK9+2.5 nM Lance Streptavidin Europium (Strep-Eu) was made in 50 mM HEPES pH 7.4, 0.15 M NaCl, 5 mM CaCl2, 0.01% BSA, and 0.01% Surfactant P20. A separate solution containing 40 nM of the AlexaFluor tagged cyclic peptide was made in the same buffer system. An Echo was used to transfer 0.750 ul of compound to an assay plate followed by the addition of 15 ul of PCSK9+Stept-Eu and 15 ul of AF peptide. The final assay volume was 30.750 ul containing 0.5 nM PCSK9, 1.25 nM Strep-Eu, and 20 nM AF cyclic peptide. The reaction was incubated at room temperature for at least two hours prior to fluorescence measurements using an Envision Multilabel Reader. IC50 values were determined by fitting data to a sigmoidal dose-response curve using nonlinear regression. Ki was then calculated from the IC50 and the KD of AF cyclic peptide. Counts (B-counts) of the europium-labeled PCSK9 were followed to observe if compounds were […]. A fall off of the B-counts likely indicated a false positive of inhibition. Data from this procedure was reported as “A=‘numerical value’ (nanomolar)”

Chain of human PCSK9 / human LDLR EGFa domain interaction (Q8NBP7 153-692): as above
Chain of human PCSK9 / human LDLR EGFa domain interaction (Q8NBP7 31-152 partner limits assumed): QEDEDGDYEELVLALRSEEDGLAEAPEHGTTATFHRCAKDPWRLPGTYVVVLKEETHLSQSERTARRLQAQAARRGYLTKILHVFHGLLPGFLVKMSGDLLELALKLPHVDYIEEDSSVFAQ

On to `CCC[C@H](NC(=O)[C@H](CCCCN)NC(C)=O)C(=O)N[C@H]1CSCc2cccc(c2)CSC[C@@H](C(N)=O)NC(=O)[C@H]([C@@H](C)O)NC(=O)[C@H](C2CCCCC2)NC(=O)[C@H](Cc2c[nH]c3ncccc23)NC(=O)[C@H](Cc2cnc[nH]2)NC(=O)[C@H](CCC(=O)O)NC(=O)[C@H](Cc2c[nH]c3ncccc23)NC(=O)[C@H]([C@@H](C)O)NC(=O)[C@@H]2CCCN2C(=O)[C@H](Cc2ccc(O)cc2)NC(=O)[C@H](C(C)(C)C)NC1=O` [Compound 002] (Ac-K[Nva]C[Tle]YPT[Trp(7-aza)]EH[Trp(7-aza)][Chg]TC-NH2; linker 3-14 via mXylylene), for which the IC50 (in assay [1]; on PCSK9) was 1 to 100 nM throughout.
As for `CC1O[C@@H](C)[C@@H]2NC(=O)[C@@]1(C)NC(=O)[C@H](Cc1ccc(O)cc1)NC(=O)[C@H](C)NC(=O)C(C)(C)NC(=O)[C@H](Cc1c[nH]c3ncccc13)NC(=O)[C@H]([C@@H](C)O)NC(=O)[C@@H]1CCCN1C(=O)[C@H](Cc1ccc(O)cc1)NC(=O)[C@H](C(C)(C)C)NC(=O)CCSCc1cccc(c1)CSC[C@@H](C(N)=O)NC2=O` (stereo partly shown) [Compound 017], the concentration for half-maximal inhibition (IC50) lay in the range of 100 to 1000 nM in assay [1] and 1 to 100 nM at PCSK9.
On to `CC(C)[C@]1(C)NC(=O)[C@H](Cc2ccc(O)cc2)NC(=O)[C@H](C)NC(=O)C(C)(C)NC(=O)[C@H](Cc2c[nH]c3ncccc23)NC(=O)[C@H]([C@@H](C)O)NC(=O)[C@@H]2CCCN2C(=O)[C@H](Cc2ccc(O)cc2)NC(=O)[C@H](C(C)(C)C)NC(=O)CCSCc2cccc(c2)CSC[C@@H](C(N)=O)NC(=O)[C@H](CO)NC1=O` [Compound 018] ([Mpa][Tle]YPT[Trp(7-aza)][Aib]AY[αMeV]SC-NH2; linker 1-12 via mXylylene), for which the half-inhibitory concentration (IC50) (in assay [1]; at PCSK9) was 1 to 100 nM each time.
Regarding `CC(C)[C@]1(C)NC(=O)[C@H](Cc2ccc(O)cc2)NC(=O)[C@H](C)NC(=O)C(C)(C)NC(=O)[C@H](Cc2c[nH]c3ncccc23)NC(=O)[C@H]([C@@H](C)O)NC(=O)[C@@H]2CCCN2C(=O)[C@H](Cc2ccc(O)cc2)NC(=O)[C@H](C(C)(C)C)NC(=O)CCSCc2cccc(c2)CSC[C@@H](C(N)=O)NC(=O)[C@H](CCCCN)NC1=O` [Compound 019] ([Mpa][Tle]YPT[Trp(7-aza)][Aib]AY[αMeV]KC-NH2; linker 1-12 via mXylylene), the results for the IC50 (in assay [1]; on PCSK9) were 21000 to 50000 nM and 1000 to 12100 nM, respectively.
The like results for `CC(C)[C@]1(C)NC(=O)[C@H](Cc2ccc(O)cc2)NC(=O)[C@H](CCC(=O)O)NC(=O)C(C)(C)NC(=O)[C@H](Cc2c[nH]c3ncccc23)NC(=O)[C@H]([C@@H](C)O)NC(=O)[C@@H]2CCCN2C(=O)[C@H](Cc2ccc(O)cc2)NC(=O)[C@H](C(C)(C)C)NC(=O)CCSCc2cccc(c2)CSC[C@@H](C(N)=O)NC(=O)[C@H]([C@H](C)O)NC1=O` [Compound 020] ([Mpa][Tle]YPT[Trp(7-aza)][Aib]EY[αMeV][aThr]C-NH2; linker 1-12 via mXylylene) were, in that order, 21000 to 50000 nM and 1000 to 12100 nM.
For `CC(C)[C@@H]1NC(=O)CCSCc2cccc(c2)CSCCNC(=O)[C@H](C)NC(=O)[C@](C)(C(C)C)NC(=O)[C@H](Cc2ccccc2)NC(=O)[C@H](C)NC(=O)C(C)(C)NC(=O)[C@H](Cc2cccc3ccccc23)NC(=O)[C@H]([C@@H](C)O)NC(=O)[C@@H]2CCCN2C(=O)[C@H](Cc2ccccc2)NC1=O` [Compound 021] (cyclo([1Nal][Aib]AF[αMeV]A[X2]VFPT)), the results for the IC50 (in assay [1]; at PCSK9) were 100 to 1000 nM and 1 to 100 nM, respectively.
The like results for `CCC[C@@H]1NC(=O)[C@H](Cc2cccc3ccccc23)NC(=O)[C@H]([C@@H](C)O)NC(=O)[C@@H]2CCCN2C(=O)[C@H](Cc2ccccc2)NC(=O)[C@H](C(C)C)NC(=O)CCSCc2cccc(c2)CSCCNC(=O)[C@H](C)NC(=O)[C@](C)(C(C)C)NC(=O)[C@H](Cc2ccccc2)NC(=O)[C@H](C)NC1=O` [Compound 022] (cyclo([1Nal][Nva]AF[αMeV]A[X2]VFPT)) were, in that order, 100 to 1000 nM and 1 to 100 nM.
The like results for `CC(C)[C@]1(C)NC(=O)[C@H](Cc2ccc(O)cc2)NC(=O)[C@H](C)NC(=O)[C@](C)(CCCCN)NC(=O)[C@H](Cc2c[nH]c3ncccc23)NC(=O)[C@H]([C@@H](C)O)NC(=O)[C@@H]2CCCN2C(=O)[C@H](Cc2ccc(O)cc2)NC(=O)[C@H](C(C)(C)C)NC(=O)CCSCc2cccc(c2)CSC[C@@H](C(N)=O)NC(=O)[C@H]([C@@H](C)O)NC1=O` [Compound 023] ([Mpa][Tle]YPT[Trp(7-aza)][αMeK]AY[αMeV]TC-NH2; linker 1-12 via mXylylene) were, in that order, 1 to 100 nM and 1 to 100 nM.
In the case of `CC(C)[C@]1(C)NC(=O)[C@H](Cc2ccc(O)cc2)NC(=O)[C@H](C)NC(=O)[C@](C)(CCCN)NC(=O)[C@H](Cc2c[nH]c3ncccc23)NC(=O)[C@H]([C@@H](C)O)NC(=O)[C@@H]2CCCN2C(=O)[C@H](Cc2ccc(O)cc2)NC(=O)[C@H](C(C)(C)C)NC(=O)CCSCc2cccc(c2)CSC[C@H](C(N)=O)NC(=O)[C@H]([C@@H](C)O)NC1=O` [Compound 025] ([Mpa][Tle]YPT[Trp(7-aza)][αMeOrn]AY[αMeV]T[dC]-NH2; linker 1-12 via mXylylene), at PCSK9, the 50% inhibitory concentration (IC50) is 1 to 100 nM.
The same measure, in the same setting: the value for `CC(=O)N[C@H]1CSCc2cc(F)cc(c2)CSC[C@@H](C(N)=O)NC(=O)[C@H]([C@@H](C)O)NC(=O)[C@](C)(C(C)C)NC(=O)[C@H](Cc2ccc(O)cc2)NC(=O)[C@H](C)NC(=O)C(C)(C)NC(=O)[C@H](Cc2c[nH]c3ncccc23)NC(=O)[C@H]([C@@H](C)O)NC(=O)[C@@H]2CCCN2C(=O)[C@H](Cc2ccc(O)cc2)NC(=O)[C@H](C(C)(C)C)NC1=O` [Compound 026] (Ac-C[Tle]YPT[Trp(7-aza)][Aib]AY[αMeV]TC-NH2; linker 1-12 via mXylylene(5-F)) was 1 to 100 nM.
Compound `CC(=O)N[C@H]1CSCc2cccc(c2)CSC[C@H](C(N)=O)NC(=O)[C@H]([C@@H](C)O)NC(=O)[C@](C)(C(C)C)NC(=O)[C@H](Cc2ccc(O)cc2)NC(=O)[C@H](C)NC(=O)C(C)(C)NC(=O)[C@H](Cc2c[nH]c3ncccc23)NC(=O)[C@H]([C@H](C)O)NC(=O)[C@@H]2CCCN2C(=O)[C@H](Cc2ccc(O)cc2)NC(=O)[C@H](C(C)(C)C)NC1=O` [Compound 029] (Ac-C[Tle]YP[aThr][Trp(7-aza)][Aib]AY[αMeV]T[dC]-NH2; linker 1-12 via mXylylene) showed an IC50 on PCSK9 of 100 to 1000 nM.
For the compound `CC(=O)N[C@H]1CSCc2cccc(c2)CSC[C@H](C(N)=O)NC(=O)[C@H]([C@@H](C)O)NC(=O)[C@](C)(C(C)C)NC(=O)[C@H](Cc2ccc(O)cc2)NC(=O)[C@H](C)NC(=O)[C@](C)(CCCN)NC(=O)[C@H](Cc2c[nH]c3ncccc23)NC(=O)[C@H]([C@@H](C)O)NC(=O)[C@@H]2CCCN2C(=O)[C@H](Cc2ccc(O)cc2)NC(=O)[C@H](C(C)(C)C)NC1=O` [Compound 033] (Ac-C[Tle]YPT[Trp(7-aza)][αMeOrn]AY[αMeV]T[dC]-NH2; linker 1-12 via mXylylene), at PCSK9, the IC50 is 1 to 100 nM.
Compound `CC(=O)N[C@H]1CSCc2cccc(c2)CSC[C@H](C(N)=O)NC(=O)[C@H]([C@@H](C)O)NC(=O)[C@](C)(C(C)C)NC(=O)[C@H](Cc2ccc(O)cc2)NC(=O)[C@H](C)NC(=O)C2(CNC2)NC(=O)[C@H](Cc2c[nH]c3ncccc23)NC(=O)[C@H]([C@@H](C)O)NC(=O)[C@@H]2CCCN2C(=O)[C@H](Cc2ccc(O)cc2)NC(=O)[C@H](C(C)(C)C)NC1=O` [Compound 038] (Ac-C[Tle]YPT[Trp(7-aza)][3Aminoazetidine3carboxyl]AY[αMeV]T[dC]-NH2; linker 1-12 via mXylylene) yielded a concentration for half-maximal inhibition (IC50) at PCSK9 of 1 to 100 nM.
Regarding `CCC[C@@H]1NC(=O)[C@H](Cc2cncc3ccccc23)NC(=O)[C@H]([C@@H](C)O)CC(=O)[C@H](Cc2cnc[nH]2)NC(=O)[C@H](Cc2ccc(O)cc2)NC(=O)[C@H](C(C)(C)C)NC(=O)CCSCc2cccc(c2)CSC[C@@H](C(N)=O)NC(=O)[C@H]([C@@H](C)O)NC(=O)[C@H](CCC)NC(=O)[C@H](Cc2ccc(O)cc2)NC(=O)[C@H](CCC(=O)O)NC1=O` [Compound 052] ([Mpa][Tle]Y[X6][Ala(4-isoquinolinyl)][Nva]EY[Nva]TC-NH2; linker 1-11 via mXylylene), the IC50 (in assay [1]; at PCSK9) was 100 to 1000 nM throughout.
In the case of `CCC[C@@H]1NC(=O)[C@H](Cc2c[nH]c3ncccc23)NC(=O)[C@H]([C@@H](C)O)NC(=O)[C@H](Cc2cnc[nH]2)NC(=O)[C@H](Cc2ccc(O)cc2)NC(=O)[C@H](C(C)(C)C)NC(=O)CCSCc2cccc(c2)CSC[C@@H](C(N)=O)NC(=O)[C@H]([C@@H](C)O)NC(=O)[C@H](Cc2ccc(O)cc2)NC(=O)[C@H](Cc2ccc(O)cc2)NC(=O)[C@H](CCC(=O)O)NC1=O` [Compound 071] ([Mpa][Tle]YHT[Trp(7-aza)][Nva]EYYTC-NH2; linker 1-12 via mXylylene), the values for the IC50 (in assay [1]; at PCSK9) were 100 to 1000 nM and 1 to 100 nM, respectively.
